Data taken from US12655116B2, “Substituted isophthalic acid diamides” (Bayer Aktiengesellschaft, priority 2020, dated 2026).

Assays:
[1] = tested on: AVEFA; assay: Pre-emergence herbicidal action against AVEFA; type: in vivo, Avena fatua; settings: Avena fatua, 504 h, pre-emergence; for pest or weed control at 20 g/ha: scored visually after 3 weeks, 100% = plants have died, 0% = like control plants
How it was run: (§1)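 Pre-emergence soil-surface spray of formulated compound (WP or EC; 600 to 800 l/ha; 0.2% wetting agent) over seeds sown in sandy loam. After 3 weeks under greenhouse conditions, damage is estimated visually in percent against untreated plants.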

[2] = tested on: AMARE; assay: Post-emergence herbicidal action against AMARE; type: in vivo, Amaranthus retroflexus; settings: Amaranthus retroflexus, 504 h, 20 g/ha, visual assessment about 3 weeks after treatment, 100% = plants have died, 0% = like control plants
How it was run: (§2)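 Greenhouse plants in sandy loam were sprayed at the one-leaf stage, 2 to 3 weeks after sowing, with WP or EC formulations as aqueous suspension or emulsion (600 to 800 l/ha water, 0.2% wetting agent). Visual damage was scored about 3 weeks later versus untreated controls, 0% = like control, 100% = dead.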

[3] = tested on: AMARE; assay: Pre-emergence herbicidal action against AMARE; type: in vivo, Amaranthus retroflexus; settings: Amaranthus retroflexus, 504 h, scored visually after 3 weeks vs untreated controls, 100% = plants have died, 0% = like control plants
How it was run: as §1

[4] = tested on: STEME; assay: Pre-emergence herbicidal action against STEME; type: in vivo, Stellaria media; settings: Stellaria media, 504 h; for pest or weed control at 20 g/ha: dosage 20 g/ha; for pest or weed control at 80 g/ha: dosage 80 g/ha
How it was run: as §1

[5] = tested on: STEME; assay: Post-emergence herbicidal action against STEME; type: in vivo, Stellaria media; settings: Stellaria media, 504 h; for pest or weed control at 5 g/ha: dosage 5 g/ha
How it was run: as §2

[6] = tested on: VIOTR; assay: Pre-emergence herbicidal action against VIOTR; type: in vivo, Viola tricolor; settings: Viola tricolor, 504 h; for pest or weed control at 80 g/ha: dosage 80 g/ha
How it was run: as §1

[7] = tested on: LOLRI; assay: Post-emergence herbicidal action against LOLRI; type: in vivo, Lolium rigidum; settings: Lolium rigidum, 504 h, dosage 20 g/ha
How it was run: as §2

[8] = tested on: ALOMY; assay: Pre-emergence herbicidal action against ALOMY; type: in vivo, Alopecurus myosuroides; settings: Alopecurus myosuroides, 504 h, pre-emergence; for pest or weed control at 80 g/ha: scored visually after 3 weeks vs untreated controls (100% = plants have died, 0% = like control plants)
How it was run: as §1

[9] = tested on: MATIN; assay: Pre-emergence herbicidal action against MATIN; type: in vivo, Matricaria inodora; settings: Tripleurospermum inodorum, 504 h; for pest or weed control at 20 g/ha: dosage 20 g/ha; for pest or weed control at 80 g/ha: dosage 80 g/ha
How it was run: as §1

[10] = tested on: SETVI; assay: Post-emergence herbicidal action against SETVI; type: in vivo, Setaria viridis; settings: Setaria viridis, 504 h; for pest or weed control at 5 g/ha: dosage 5 g/ha; for pest or weed control at 20 g/ha: dosage 20 g/ha
How it was run: as §2

[11] = tested on: VERPE; assay: Post-emergence herbicidal action against VERPE; type: in vivo, Veronica persica; settings: Veronica persica, 504 h, 20 g/ha
How it was run: as §2

[12] = tested on: HORMU; assay: Post-emergence herbicidal action against HORMU; type: in vivo, Hordeum murinum; settings: Hordeum murinum, 504 h, dosage 20 g/ha
How it was run: as §2

[13] = tested on: POLCO; assay: Pre-emergence herbicidal action against POLCO; type: in vivo, Polygonum convolvulus; settings: Fallopia convolvulus, 504 h; for pest or weed control at 20 g/ha: dosage 20 g/ha; for pest or weed control at 80 g/ha: dosage 80 g/ha
How it was run: as §1

[14] = tested on: ABUTH; assay: Post-emergence herbicidal action against ABUTH; type: in vivo, Abutilon theophrasti; settings: Abutilon theophrasti, 504 h, visual assessment about 3 weeks after treatment vs untreated controls; for pest or weed control at 5 g/ha: dosage 5 g/ha; for pest or weed control at 20 g/ha: dosage 20 g/ha
How it was run: as §2

[15] = tested on: VIOTR; assay: Post-emergence herbicidal action against VIOTR; type: in vivo, Viola tricolor; settings: Viola tricolor, 504 h
How it was run: as §2

[16] = tested on: ECHCG; assay: Pre-emergence herbicidal action against ECHCG; type: in vivo, Echinochloa crus-galli; settings: Echinochloa crus-galli, 504 h
How it was run: as §1

[17] = tested on: VERPE; assay: Pre-emergence herbicidal action against VERPE; type: in vivo, Veronica persica; settings: Veronica persica, 504 h; for pest or weed control at 80 g/ha: dosage 80 g/ha
How it was run: as §1

[18] = tested on: ABUTH; assay: Pre-emergence herbicidal action against ABUTH; type: in vivo, Abutilon theophrasti; settings: Abutilon theophrasti, 504 h; for pest or weed control at 80 g/ha: scored visually after 3 weeks vs untreated controls (100% = plants have died, 0% = like control plants); for pest or weed control at 20 g/ha: dosage 20 g/ha, scored visually after 3 weeks vs untreated controls, 100% = plants have died, 0% = like control plants, read-out: Pre-emergence action against ABUTH (herbicidal activity in percent)
How it was run: as §1

[19] = tested on: LOLRI; assay: Pre-emergence herbicidal action against LOLRI; type: in vivo, Lolium rigidum; settings: Lolium rigidum, 504 h, 80 g/ha
How it was run: as §1

[20] = tested on: HORMU; assay: Pre-emergence herbicidal action against HORMU; type: in vivo, Hordeum murinum; settings: Hordeum murinum, 504 h; 80 g/ha, pre-emergence
How it was run: as §1

[21] = tested on: PHBPU; assay: Post-emergence herbicidal action against PHBPU; type: in vivo, Pharbitis purpurea; settings: Ipomoea purpurea, 504 h; for pest or weed control at 20 g/ha: dosage 20 g/ha
How it was run: as §2

[22] = tested on: SETVI; assay: Pre-emergence herbicidal action against SETVI; type: in vivo, Setaria viridis; settings: Setaria viridis, 504 h, dosage 80 g/ha
How it was run: as §1

[23] = tested on: POLCO; assay: Post-emergence herbicidal action against POLCO; type: in vivo, Polygonum convolvulus; settings: Fallopia convolvulus, 504 h, dosage 20 g/ha
How it was run: as §2

| SMILES | pest or weed control at 80 g/ha [1] [%] | pest or weed control at 20 g/ha [1] [%] | pest or weed control at 20 g/ha [2] [%] | pest or weed control at 20 g/ha [3] [%] | pest or weed control at 80 g/ha [3] [%] | pest or weed control at 20 g/ha [4] [%] | pest or weed control at 80 g/ha [4] [%] | pest or weed control at 20 g/ha [5] [%] | pest or weed control at 5 g/ha [5] [%] | pest or weed control at 80 g/ha [6] [%] | pest or weed control at 80 g/ha [8] [%] | pest or weed control at 20 g/ha [9] [%] | pest or weed control at 80 g/ha [9] [%] | pest or weed control at 5 g/ha [10] [%] | pest or weed control at 20 g/ha [10] [%] | pest or weed control at 20 g/ha [11] [%] | pest or weed control at 20 g/ha [12] [%] | pest or weed control at 20 g/ha [13] [%] | pest or weed control at 80 g/ha [13] [%] | pest or weed control at 5 g/ha [14] [%] | further results |
| --- | --- | --- | --- | --- | --- | --- | --- | --- | --- | --- | --- | --- | --- | --- | --- | --- | --- | --- | --- | --- | --- |
| CCn1nnnc1NC(=O)c1ccc(C(F)(F)F)c(C(=O)NC2CC2)c1C [Example 2-27] | 100 | 80 | 100 | 100 | 100 | 100 | 100 | 100 | 100 | 100 | 100 | 100 | 100 | 80 | 100 | 80 | 90 | 80 | 100 | 100 | pest or weed control at 20 g/ha ([6]; dosage 20 g/ha): 100%; pest or weed control at 20 g/ha [7]: 80%; pest or weed control at 20 g/ha [14]: 100%; pest or weed control at 5 g/ha ([15]; 5 g/ha): 100%; pest or weed control at 20 g/ha [15]: 100%; pest or weed control at 20 g/ha ([16]; 20 g/ha): 90%; pest or weed control at 80 g/ha [16]: 100%; pest or weed control at 20 g/ha ([17]; dosage 20 g/ha): 80%; pest or weed control at 80 g/ha [17]: 100%; pest or weed control at 80 g/ha [18]: 100%; pest or weed control at 20 g/ha [18]: 100%; pest or weed control at 80 g/ha [19]: 80%; pest or weed control at 80 g/ha [20]: 90%; pest or weed control at 20 g/ha [21]: 90%; pest or weed control at 80 g/ha [22]: 100% |
| CCn1nnnc1NC(=O)c1ccc(Cl)c(C(=O)NC2CC2)c1Cl [Example 2-173] | 100 | 90 | 100 | 100 | 100 | 100 | 100 | 100 | 100 | 100 | 100 | 100 | 100 | 100 | 100 | 80 | 100 | 90 | 100 | 90 | pest or weed control at 20 g/ha [23]: 90%; pest or weed control at 20 g/ha ([8]; 20 g/ha, scored visually after 3 weeks, 100% = plants have died, 0% = like control plants): 100%; pest or weed control at 20 g/ha [14]: 100%; pest or weed control at 20 g/ha [15]: 100%; pest or weed control at 80 g/ha [16]: 100%; pest or weed control at 80 g/ha [17]: 80%; pest or weed control at 80 g/ha [18]: 100%; pest or weed control at 20 g/ha [18]: 90%; pest or weed control at 80 g/ha [19]: 90%; pest or weed control at 80 g/ha [20]: 100%; pest or weed control at 5 g/ha ([21]; dosage 5 g/ha): 80%; pest or weed control at 20 g/ha [21]: 90%; pest or weed control at 80 g/ha [22]: 100% |
